Measurements taken from article PMC11051159, “Green Synthesis of Gold Nanoparticles Using Liquiritin and Other Phenolics from Glycyrrhiza glabra and Their Anti-Inflammatory Activity” (Journal of Functional Biomaterials, 2024).
Converted amounts (≈) assume the structure as drawn. Read-outs that look alike come from different tables or passages of the source.

Assays:
PC12 cells = system: PC12 cells; set-up: method as in PMID 19789989; conditions: PC12 cells in the presence of neuronal growth factor, 3- and 5-day periods; cited from earlier work
human liver cells, HepG2 = system: human liver cells, HepG2; set-up: method as in PMID 31956937; conditions: concentrations ≥ 120 μM, 24 hrs; cited from earlier work
RAW 264.7 cells = experiment: Cell viability assay (WST-1); type: cell-based, murine; conditions: for IC50: Mus musculus; for concentration at which cell viability was significantly decreased (cytotoxic): range tested 0–100 μg/mL; for effect on cell viability (in words): 0–100 μg/mL
Protocol: (§1) The RAW 264.7 cells were seeded at 1 × 10^6 cells/mL in 96-well tissue culture-treated plates for cell viability and nitric oxide assays. The seeded cells were incubated under standard tissue culture conditions at 37 °C in a humidified atmosphere of 5% CO2 for approximately 24 h until the cells reached 70–80% confluence. The cells were subsequently exposed to the relevant AuNP conjugates, total extract, or compounds. After that, the cells were either left unstimulated or stimulated with 1 μg/mL lipopolysaccharide (LPS, from E. coli O111:B4, Sigma-Aldrich) to yield a final concentration range of 0–100 μg/mL of the appropriate treatment. The cells were then incubated overnight under standard tissue culture conditions.
(§2) The supernatants were removed after incubation, and cells were washed with phosphate-buffered saline (PBS, Lonza). Cell viability was assessed by adding 50 μL of a 1/10 dilution of 2-(4-iodophenyl)-3-(4-nitrophenyl)-5-(2,4-disulfophenyl)-2H-tetrazolium (WST-1, Roche, Basel, Switzerland) in complete DMEM medium to each well. Metabolically active cells convert the WST-1 reagent to a formazan that can be measured spectrophotometrically. Formazan formation was determined by reading the plate at 450 nm immediately after adding WST-1 and again after an incubation period of 1 h at 37 °C. The increase in absorbance is proportional to formazan formation and directly proportional to cell viability. The difference between the zero-absorbance reading and 1 hr incubation was used to calculate the percentage of cell viability. Cell viability was calculated as a percentage of the control using the below formula:(1) Cell viability as a % of Control=T1−T0/U1−U0×100 where T1 is the absorbance of the treated sample after 1 h, T0 is the absorbance of the treated at 0 h, U1 is the absorbance of the untreated sample after 1h, and U0 is the absorbance of the untreated sample at 0 h.

[1] = system: NO production, RAW 264.7 cells; experiment: Nitric oxide (NO) assay (Griess reaction); type: cell-based, murine; conditions: for IC50: Mus musculus, RAW264.7, RAW 264.7, 1 μg/mL LPS, pure compound, ± SEM, read-out: Approximate NO IC50, +LPS, Comp.; for concentration at which NO production / inflammatory activity was reduced: non-toxic concentrations
Protocol: as §1
In the initial development of the assay, polymyxin inhibition of LPS inflammatory activity was checked. Polymyxin was established to inhibit LPS-induced inflammatory activity in macrophage cultures. Cell culture supernatants were removed after the overnight incubation with the relevant treatment. They were used to determine the amount of nitrite produced by the cells and used as an indication of NO production. The amount of NO produced was determined against a 0–100 μM nitrite standard range (Sigma-Aldrich). Culture supernatants or nitrite standard (50 μL) were mixed with 50 μL of Griess reagent (Sigma-Aldrich). The absorbance was subsequently read spectrophotometrically at 540 nm (Multiskan Ex, Thermo Electron Corporation, Vantaa, Finland), and the amount of NO produced by the cells was quantified. NO levels were not determined at cytotoxic concentrations.
The NO assay based on the Griess reaction was used to assess the production of NO from the RAW cells after the exposure to the NP extract/pure compounds in either the absence or presence of LPS.

B65 neuroblastomas = system: B65 neuroblastomas; set-up: method as in PMID 28970010; conditions: after 48 h; cited from earlier work
RAW 264.7 cell = system: RAW 264.7 cell; set-up: method as in PMID 18295200, PMID 25871879; conditions: 0–1.6 μM or 0–200 μM, 24 h; cited from earlier work
[2] = Cell viability assay (WST-1); type: cell-based, murine; conditions: mouse, RAW 264.7 cells; −LPS, at concentrations ≥ 50 μg/mL; read-out: percentage of viable cells
Protocol: as §1, §2

[3] = RAW264.7, RAW 264.7, 1 μg/mL LPS, pure compound/extract, overnight exposure, ± SEM, read-out: Approximate cell viability IC50, +LPS, Comp.
[4] = RAW264.7, RAW 264.7, unstimulated (−LPS), pure compound/extract, overnight exposure, ± SEM, read-out: Approximate cell viability IC50, −LPS, Comp.
[5] = RAW 264.7, absence of LPS (basal)

O=C1C[C@@H](c2ccc(O[C@@H]3O[C@H](CO)[C@@H](O)[C@H](O)[C@H]3O)cc2)Oc2cc(O)ccc21 [Comp. 1, liquiritin]
concentration at which cell viability decreased (PC12 cells): ≥ 50 µg/mL
HepG2 viability (human liver cells, HepG2): below 40%
IC50 (RAW 264.7 cells; [3]): ~60.5 µg/mL (≈ 145 µM)
IC50 (RAW 264.7 cells; [4]): ~39.7 µg/mL (≈ 94.9 µM)
concentration at which cell viability was significantly decreased (cytotoxic) (RAW 264.7 cells; [5]): 50 to 100 µg/mL
concentration at which cell viability was significantly decreased (cytotoxic) (RAW 264.7 cells; RAW 264.7, absence of LPS (basal), listed as liquiritin (1)): ≥ 50 µg/mL
concentration at which cell viability was significantly decreased (cytotoxic) (RAW 264.7 cells; RAW 264.7, presence of LPS): 50 to 100 µg/mL
IC50 [1]: ~16.5 µg/mL (≈ 39.4 µM)
effect on NO secretion (in words) [1, 5]: did not elicit NO secretion
effect on NO secretion (in words) ([1]; RAW 264.7, presence of LPS): inhibited NO secretion
concentration at which NO production / inflammatory activity was reduced ([1]; RAW 264.7, presence of LPS, listed as Compound 1): 25 µg/mL
concentration at which NO production / inflammatory activity was reduced ([1]; RAW 264.7, presence of LPS, listed as liquiritin): ≥ 25 µg/mL

O=C(/C=C/c1ccc(O[C@@H]2O[C@H](CO)[C@@H](O)[C@H](O)[C@H]2O)cc1)c1ccc(O)cc1O [Comp. 2, isoliquiritin]
concentration at which viability was reduced (B65 neuroblastomas): 100 µM
effect on RAW 264.7 cell viability (in words) (RAW 264.7 cell): not affected
concentration at which cell viability was significantly decreased (cytotoxic) (RAW 264.7 cells; [5]): 100 µg/mL
effect on cell viability (in words) (RAW 264.7 cells; RAW 264.7, presence of LPS): no cytotoxicity was exhibited
effect on cell viability (in words) (RAW 264.7 cells; RAW 264.7, presence of LPS, listed as Isoliquiritin (2)): no effect on viability
effect on cell viability (in words) (RAW 264.7 cells; RAW 264.7, presence of LPS, listed as isoliquiritin (2)): did not hinder cell proliferation
effect on NO secretion (in words) [1, 5]: did not affect the level of NO

O=C(/C=C/c1ccc(O)cc1)c1ccc(O[C@@H]2O[C@H](CO)[C@@H](O)[C@H](O)[C@H]2O)cc1O [Comp. 3, neoisoliquiritin]
effect on NO secretion (in words) [1, 5]: did not affect the level of NO
effect on NO secretion (in words) ([1]; RAW 264.7, presence of LPS): did not affect the level of NO

CC1(C)C=Cc2c(ccc3c2OC[C@@H](c2ccc(O)cc2O)C3)O1 [Comp. 6, glabridin]
viability [2]: ≤ 30%
percentage viability (RAW 264.7 cells; +LPS, at concentrations ≥ 25 μg/mL): 65 to 9%
IC50 (RAW 264.7 cells; [3]): ~27.2 µg/mL (≈ 83.9 µM)
IC50 (RAW 264.7 cells; [4]): ~28.4 µg/mL (≈ 87.6 µM)
concentration at which toxicity was seen (RAW 264.7 cells; RAW 264.7, LPS status not stated): > 25 µg/mL
concentration at which cell viability was significantly decreased (cytotoxic) (RAW 264.7 cells; [5]): ≥ 50 µg/mL
concentration at which cell viability was significantly decreased (cytotoxic) (RAW 264.7 cells; RAW 264.7, presence of LPS): ≥ 25 µg/mL
IC50 [1]: ~27.5 µg/mL (≈ 84.8 µM)
effect on NO secretion (in words) [1, 5]: did not affect NO production
effect on NO secretion (in words) ([1]; RAW 264.7, presence of LPS): inhibited NO secretion
concentration at which NO production / inflammatory activity was reduced ([1]; RAW 264.7, presence of LPS): ≥ 12.5 µg/mL

isoliquiritin apioside [Comp. 4]
cell viability reduced to (RAW 264.7 cells; +LPS, 25 μg/mL): 60%
cell viability reduced to (RAW 264.7 cells; +LPS, 50 μg/mL): 70%
effect on NO secretion (in words) [1, 5]: did not elicit an inflammatory response
effect on NO secretion (in words) ([1]; RAW 264.7, presence of LPS): did not impact NO secretion

liquiritin apioside [Comp. 5]
concentration at which cell viability was increased (mitogenic effect) (RAW 264.7 cells; RAW 264.7, presence of LPS): 25 µg/mL
Approximate cell viability IC50, −LPS, Comp. (RAW 264.7 cells; RAW 264.7, unstimulated (−LPS), pure compound/extract, overnight exposure, ± SEM): 47.8 ± 0.2 µg/mL
cell viability reduced to (RAW 264.7 cells; −LPS, 100 μg/mL): 40%
reduction of cell viability (RAW 264.7 cells; −LPS, at concentrations ≥ 50 μg/mL): 40%
